Experimental data: publication PMC12087874, “Biaryl Phosphates and Phosphonates as Selective Inhibitors of the Transcription Factor STAT4” (Angewandte Chemie (International Ed. in English), 2025)
“Also recorded” adds a separate entry of the source. Read-outs that look alike come from different tables or passages of the source. Square brackets hold non-standard residues; d marks the D form. Peptide text beside a SMILES is read from it. pY = N[C@@H](Cc1ccc(OP(=O)(O)O)cc1)C(=O)O

Columns and labels:
[1] = target: T1, STAT4 (Homo sapiens, UniProt Q14765); experiment: IL-12-induced STAT4 Tyr693 phosphorylation in NK-92 cells (Western blot); type: cell-based; parameters: utilizing cellular lysates from the STAT4‐expressing natural killer cell line NK‐92; endogenous in cells; host or cells: NK-92 (DSMZ)
T1 sequence (Q14765 1-748): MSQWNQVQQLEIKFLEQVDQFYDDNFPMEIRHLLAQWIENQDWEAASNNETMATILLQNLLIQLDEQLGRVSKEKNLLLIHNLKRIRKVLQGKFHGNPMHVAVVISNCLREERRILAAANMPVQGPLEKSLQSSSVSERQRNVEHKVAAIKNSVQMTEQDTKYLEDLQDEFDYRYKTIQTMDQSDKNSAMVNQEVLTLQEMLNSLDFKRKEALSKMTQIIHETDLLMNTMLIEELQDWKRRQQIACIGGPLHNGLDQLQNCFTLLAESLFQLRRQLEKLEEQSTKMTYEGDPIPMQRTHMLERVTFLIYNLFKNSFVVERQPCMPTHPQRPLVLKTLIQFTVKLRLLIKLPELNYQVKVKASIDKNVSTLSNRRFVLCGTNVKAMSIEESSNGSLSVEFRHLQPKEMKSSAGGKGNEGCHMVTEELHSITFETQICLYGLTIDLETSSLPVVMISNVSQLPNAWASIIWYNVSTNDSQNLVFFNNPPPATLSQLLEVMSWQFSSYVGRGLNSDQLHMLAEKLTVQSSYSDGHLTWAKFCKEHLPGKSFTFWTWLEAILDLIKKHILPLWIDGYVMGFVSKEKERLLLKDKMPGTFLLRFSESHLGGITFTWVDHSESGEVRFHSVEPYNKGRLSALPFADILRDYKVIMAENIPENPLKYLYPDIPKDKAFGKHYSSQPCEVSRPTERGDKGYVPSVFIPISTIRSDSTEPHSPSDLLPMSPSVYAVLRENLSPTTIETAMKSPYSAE
Method: (§1) NK-92 cells (DSMZ) were cultured in α-MEM containing 12.5% fetal bovine serum (FBS), 12.5% horse serum, 2 mM L-glutamine, penicillin/streptomycin and 50 U/ml IL -2. […]
(§2) The components of cell lysates from treated cells, or heat-treated lysates from CETSA, were separated by SDS-PAGE (10%), transferred to nitrocellulose membrane (Bio-Rad) and detected using monoclonal rabbit primary antibodies (Cell Signaling), α-rabbit-HRP secondary antibody (Dako) and Western Lightning Plus chemiluminescence reagent (Perkin Elmer).
(§3) Bands were visualized using an ImageQuant system (GE Healthcare) and quantitated using ImageJ software (NIH). […]
(§4) The sitting drop was composed of 0.1 µl protein solution and 0.1 µl reservoir solution. Plates were stored at 19°C in a protein […]
(§5) In the first set of experiments, w e tried to crystallize STAT4 as a SUMO -STAT4 fusion protein […]
(§6) was cleaved off as described above.
(§7) Screening for crystallization conditions for tag-free STAT4 was performed both in the absence or presence of 1 equivalent of 6m or 6h. Since the chosen protein concentration of 3.6 mg/ml appeared to be too low, screening was repeated with a higher concentration of 6.4 mg/ml STAT4 for all conditions (corresponding to 100 µM 6m). Both the SUMO-STAT4 and the tag-free STAT4 preferentially precipitated under conditions containing polyethylene glycol. In one set of experiments, we also screened for conditions in the presence of the high-affinity peptide GY(PO3H2)LPQNID adapted from the IL-12 receptor. However, none of the conditions resulted in the growth of STAT4 crystals (Table S4).

[2] = target: T1, STAT4; experiment: Competitive fluorescence polarization (FP) assay, STAT4 SH2 domain; type: binding; details: FP assay, tracer 5-carboxyfluorescein-GpYLPQNID-OH; Ki derived from IC50; mean ± SD, n = 3; read-out: STAT4 K i
Method: (§8) Fluorescence polarization assays
(§9) Competitive fluorescence polarization assays, which measure the abilities of test compounds (dissolved in DMSO) to displace a fluorescent-labeled peptide from the SH2 domain of a STAT protein, were carried out essentially as described. Proteins were used at the following final concentrations: 23 nM or 28 nM for STAT4; between 56 nM and 91 nM for STAT1; 107 nM or 110 nM for STAT3; between 131 nM and 177 nM for STAT5a; between 62 nM and 85 nM for STAT5b; and 101 nM or 106 nM for STAT6. These concentrations represent the approximate […]
(§10) dissociation constant for peptide binding of the respective protein batches used in the assays.
(§11) The following peptides were used: 5-carboxyfluorescein-GpYLPQNID-OH for STAT4; 5-carboxyfluorescein-GpYDKPHVL for STAT1; 5-carboxyfluorescein-GpYLPQTV-NH2 for STAT3; 5-carboxyfluorescein-GpYLVLDKW for STAT5a/b, and 5-carboxyfluorescein- […]
(§12) Gp[…]-OH for STAT6. All peptides were used at a final concentration of 10 nM. The buffer consisted of 10 mM Tris (pH 8.0), 50 mM NaCl, 1 mM EDTA, 1 mM DTT, 0 .1 % Nonidet P-40 substitute, and 2 % DMSO. After incubation of protein and test compound for 1 h at room temperature, the fluorescent -labeled peptide was added. Samples were transferred to 384 - well microtiter plates and fluorescence polarization was read after an additional 60 min of incubation time. Measurements were performed in triplicate. Percent binding was calculated based on a logarithmic curve fit using OriginPro 8G software. IC 50 values were converted to Ki-values via the published equation[3] using the corresponding Excel spread sheet […]
(§13) https://websites.umich.edu/~shaomengwanglab/software/calc_ki/index.html .
(§14) Error bars represent standard deviations. Ligand efficiencies (LE) were calculated by the formula LE = -1,37 x log Ki / number of non-hydrogen atoms.[4] […]

[3] = target: T2, STAT1 (Homo sapiens, UniProt P42224); experiment: Competitive fluorescence polarization (FP) assay, STAT1 SH2 domain; type: binding; details: tracer 5-carboxyfluorescein-GpYDKPHVL, Ki derived from IC50
T2 sequence (P42224 1-750): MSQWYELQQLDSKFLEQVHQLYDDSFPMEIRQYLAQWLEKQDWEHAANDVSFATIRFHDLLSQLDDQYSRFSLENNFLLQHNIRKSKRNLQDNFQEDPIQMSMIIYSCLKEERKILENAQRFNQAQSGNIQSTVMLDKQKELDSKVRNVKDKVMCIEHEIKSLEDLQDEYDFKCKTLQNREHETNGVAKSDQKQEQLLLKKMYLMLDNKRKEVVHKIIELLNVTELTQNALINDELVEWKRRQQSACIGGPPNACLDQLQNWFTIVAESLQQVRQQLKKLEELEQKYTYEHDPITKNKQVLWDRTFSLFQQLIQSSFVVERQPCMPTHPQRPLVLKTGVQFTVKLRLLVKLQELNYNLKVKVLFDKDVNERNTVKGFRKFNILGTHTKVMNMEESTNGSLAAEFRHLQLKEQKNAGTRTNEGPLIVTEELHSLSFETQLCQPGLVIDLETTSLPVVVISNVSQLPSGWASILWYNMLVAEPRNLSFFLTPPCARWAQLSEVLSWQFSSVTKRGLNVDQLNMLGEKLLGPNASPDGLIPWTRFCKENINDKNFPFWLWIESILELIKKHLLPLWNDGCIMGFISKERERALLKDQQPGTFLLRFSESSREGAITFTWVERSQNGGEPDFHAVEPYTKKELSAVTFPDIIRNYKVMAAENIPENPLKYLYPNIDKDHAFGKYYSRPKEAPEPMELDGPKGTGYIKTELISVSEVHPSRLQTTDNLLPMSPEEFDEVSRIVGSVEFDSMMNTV
Method: as §8, §9, §10, §11, §12, §13, §14

[4] = target: T3, STAT3 (Homo sapiens, UniProt P40763); experiment: Competitive fluorescence polarization (FP) assay, STAT3 SH2 domain; type: binding; details: tracer 5-carboxyfluorescein-GpYLPQTV-NH2, Ki derived from IC50
Method: as §8, §9, §10, §11, §12, §13, §14
Target sequence in this assay (P40763 whole entry, species assumed, the tested form may be a part): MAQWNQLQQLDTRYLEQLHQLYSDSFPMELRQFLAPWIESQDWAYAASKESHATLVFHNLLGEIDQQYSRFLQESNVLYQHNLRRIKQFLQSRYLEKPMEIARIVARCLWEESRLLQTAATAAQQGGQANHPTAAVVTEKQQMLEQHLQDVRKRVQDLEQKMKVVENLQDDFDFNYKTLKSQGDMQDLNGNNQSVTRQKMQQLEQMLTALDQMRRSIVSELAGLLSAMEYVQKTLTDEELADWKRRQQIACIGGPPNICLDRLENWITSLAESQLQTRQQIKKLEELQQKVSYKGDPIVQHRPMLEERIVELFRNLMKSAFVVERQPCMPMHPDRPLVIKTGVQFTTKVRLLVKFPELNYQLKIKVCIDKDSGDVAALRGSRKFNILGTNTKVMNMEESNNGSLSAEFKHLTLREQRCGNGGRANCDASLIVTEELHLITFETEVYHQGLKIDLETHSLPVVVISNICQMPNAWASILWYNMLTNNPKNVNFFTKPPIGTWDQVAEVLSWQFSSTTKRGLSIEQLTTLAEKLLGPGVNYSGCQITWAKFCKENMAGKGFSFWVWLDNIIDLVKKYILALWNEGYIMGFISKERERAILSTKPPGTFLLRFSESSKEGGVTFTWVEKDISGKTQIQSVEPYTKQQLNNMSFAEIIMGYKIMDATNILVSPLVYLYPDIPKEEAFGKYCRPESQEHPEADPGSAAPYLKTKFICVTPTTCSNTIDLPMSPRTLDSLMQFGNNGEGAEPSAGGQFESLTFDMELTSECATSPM

[5] = target: T1, STAT4; experiment: STAT4 phosphorylation in TALL-104 cells stimulated by IL-12 or IL-12 and IL-18; type: cell-based; parameters: utilizing cellular lysates from the STAT4‐expressing natural killer cell line NK‐92; endogenous in cells; host or cells: NK-92 (DSMZ); details: 4 h
Method: as §1, with “-2. TALL-104 cells (ATCC, LGC Standards) were cultured in RPMI 1640 medium containing 20% FBS, 2 mM L - glutamine, penicillin/streptomy cin and 100 U/ml IL-2.” for “-2.”
(§15) NK-92 cells were treated with test compound or DMSO in 1.5 ml medium in 12 -well plates (Corning) for 2 h (final DMSO concentration 0.2%), in the presence of 50 ng/ml IL -12 (PeproTech). For IFN-γ experiments (Figure 6 and S6), NK -92 cells or TALL-104 cells were treated for 4 h in the presence of 50 ng/ml IL-12 and 10 ng/ml IL-18 (Bio-Techne). […]
as §2, §3, §4, §5
(§16) was cleaved off as described above. […]

[6] = test system: IFN‐γ induction; experiment: IL-12/IL-18-mediated IFN-γ induction in NK-92 cells; type: cell-based, human; details: 4 h, 50 ng/ml IL-12 and 10 ng/ml IL-18
Method: as §1, §15, §2, §3, §4, §5, §6
Screening for crystallization conditions for tag-free STAT4 was performed both in the absence or presence of 1 equivalent of 6m or 6h. […]

[7] = target: T3, STAT3; experiment: STAT3 Tyr705 phosphorylation in HCC-827 cells (Western blot); type: cell-based; parameters: endogenous in cells; details: serum-free conditions, read-out: IC 50, phosphorylation of STAT3 (Tyr705)
Method: HCC-827 cells (DSMZ) and K562 cells
(DSMZ) were cultured in RPMI 1640 medium containing 10% FBS, 2 mM L -glutamine and penicillin/streptomycin. HCC -827 cells were subcultured by briefly rinsing with sterile PBS followed by incubation with 0.25% Trypsin-EDTA solution before inactivation by addition of cell culture medium (all reagents apart from cell lines were from Gibco at Thermo Fisher Scientific). […]
(§17) Cells were […]
harvested by washing twice with ice -cold TBS, followed by resuspension in TBS supplemented with protease/phosphatase inhibitors (100 ng/ml aprotinin, 1 mM Na3VO4, 10 mM NaF, 1 mM PMSF). The adherent HCC-827 cells were mechanically separated from the culture surface using plastic cell scrapers (A. Hartenstein). […]
as §2, §3, §4
Target sequence in this assay (P40763 whole entry, the tested form may be a part): as the sequence (P40763 whole entry, species assumed, the tested form may be a part) above

[8] = test system: STAT5a/5b; experiment: STAT5a/5b phosphorylation in K562 cells (Western blot); type: cell-based, human; details: Tyr694 (STAT5a)/Tyr699 (STAT5b), read-out: IC 50, STAT5a/5b‐phosphorylation
Method: as §17
harvested by washing twice with ice -cold TBS, followed by resuspension in TBS supplemented with protease/phosphatase inhibitors (100 ng/ml aprotinin, 1 mM Na3VO4, 10 mM NaF, 1 mM […]
as §2, §3, §4, §5, §6
as §7, with “In one set of experiments, we also screened for conditions in the presence of the high-affinity peptide GY(PO3H2)LPQNID adapted from the IL-12 receptor. However, none of the conditions resulted in the growth of STAT4 crystals (Table S4).” left out

[9] = test system: IFN‐γ induction; experiment: IFN-γ induction in TALL-104 cells; type: cell-based, human; details: 4 h, IL-12 or IL-12 and IL-18
Method: as §1, with “-2. TALL-104 cells (ATCC, LGC Standards) were cultured in RPMI 1640 medium containing 20% FBS, 2 mM L - glutamine, penicillin/streptomy cin and 100 U/ml IL-2.” for “-2.”
as §15, §2, §3, §4, §5, §16

Row | Compound | inhibition of IL‐12‐induced STAT4 Tyr693 phosphorylation ([1]; 2 h, presence of 25% serum) | inhibition of IL‐12‐induced STAT4 Tyr693 phosphorylation ([1]; absence of serum) | Ki [2] [µM] | Ki [3] [µM] | Ki [4] [µM] | STAT4 phosphorylation stimulated by IL‐12 alone or co‐stimulated by IL‐12 and IL‐18 [5] | IC50 ([1]; 2 h, presence of 25% serum, read-out: IC 50, IL‐12‐induced STAT4 phosphorylation) [µM] | IL‐12/IL‐18‐mediated STAT4 phosphorylation ([1]; 4 h, 50 ng/ml IL-12 and 10 ng/ml IL-18) | IC50 ([1]; IL-12, absence of serum, read-out: IC 50, STAT4 Tyr693 phosphorylation) [µM] | IL12/IL‐18‐mediated IFN‐γ induction [6] | IC50 [7] [µM] | IC50 [8] [µM] | IFN‐γ induction [9]
1 | CC(C)(C)C(=O)OCOP(=O)(Cc1ccc(-c2ccc3ccccc3c2)cc1F)OCOC(=O)C(C)(C)C [Compound 10] | inactive; also recorded: does not | still inactive | – | – | – | – | – | – | – | – | – | – | –
2 | CC[C@H](C)[C@H](NC(=O)[C@H](CC(N)=O)NC(=O)[C@H](CCC(N)=O)NC(=O)[C@@H]1CCCN1C(=O)[C@H](CC(C)C)NC(=O)[C@H](Cc1ccc(OP(=O)(O)O)cc1)NC(=O)CNC(C)=O)C(=O)N[C@@H](CC(=O)O)C(=O)O [Ac‐GpYLPQNID, reference compound] (Ac-G[pY]LPQNID-OH) | – | – | 0.22 ± 0.02 | 0.36 ± 0.08 | 0.24 ± 0.04 | – | – | – | – | – | – | – | –
3 | Cc1cc(-c2ccc(C(F)(F)P(=O)(OCOC(=O)C(C)(C)C)OCOC(=O)C(C)(C)C)c(F)c2)cs1 [Compound 9] | moderately inhibits | – | – | – | – | inhibited | 77 | strongly reduced; also recorded: inhibits | 3.3 | strongly reduced; also recorded: inhibits | 19 | > 25 | inhibited
